According to US20190345146A1, “NITROGEN CONTAINING BICYCLIC DERIVATIVES FOR TREATING PAIN AND PAIN RELATED CONDITIONS” (ESTEVE PHARMACEUTICALS, S.A., priority 2016, published 2019):
Like-named read-outs stand apart in the source and are kept apart here.

Experiments:
[1] = target: human α2δ-1 subunit of Cav2.2 calcium channel (Homo sapiens, UniProt P54289); assay: Binding assay to human α2δ-1 subunit of Cav2.2 calcium channel ([3H]-Gabapentin); conditions: read-out: Ki(nM) alpha2delta Hum
Procedure: • Binding assay to human α2δ-1 subunit of Cav2.2 calcium channel.
Human α2δ-1 enriched membranes (2.5 μg) were incubated with 15 nM of radiolabeled [3H]-Gabapentin in assay buffer containing Hepes-KOH 10 mM, pH 7.4.
(§1) NSB (non specific binding) was measured by adding 10 μM pregabalin. The binding of the test compound was measured at five different concentrations. After 60 min of incubation at 27° C., the binding reaction was terminated by filtering through Multiscreen GF/C (Millipore) presoaked in 0.5% polyethyleneimine in Vacuum Manifold Station, followed by 3 washes with ice-cold filtration buffer containing 50 mM Tris-HCl, pH 7.4.
(§2) Filter plates were dried at 60° C. for 1 h and 30 μl of scintillation cocktail were added to each well before radioactivity reading.
(§3) Readings were performed in a Trilux 1450 Microbeta radioactive counter (Perkin Elmer). • Binding assay to human norepinephrine transporter (NET).

[2] = target: human norepinephrine transporter (NET) (Homo sapiens, UniProt P23975); assay: Binding assay to human norepinephrine transporter (NET) ([3H]-Nisoxetin); conditions: Table 2, dual compounds, human NET enriched membranes, read-out: Ki(nM) NET Hum
Procedure: as §3
Human norepinephrine transporter (NET) enriched membranes (5 μg) were incubated with 5 nM of radiolabeled [3H]-Nisoxetin in assay buffer containing 50 mM Tris-HCl, 120 mM NaCl, 5 mM KCl, pH 7.4.
as §1, with “desipramine.” for “pregabalin.”, “min” for “min of”, “4°” for “27°”, “C.,” for “C., the”, “Tris-HCl, 0.9% NaCl,” for “Tris-HCl,”
as §2
Readings were performed in a Trilux 1450 Microbeta radioactive counter (Perkin Elmer).

Chain of human α2δ-1 subunit of Cav2.2 calcium channel (P54289 25-1103): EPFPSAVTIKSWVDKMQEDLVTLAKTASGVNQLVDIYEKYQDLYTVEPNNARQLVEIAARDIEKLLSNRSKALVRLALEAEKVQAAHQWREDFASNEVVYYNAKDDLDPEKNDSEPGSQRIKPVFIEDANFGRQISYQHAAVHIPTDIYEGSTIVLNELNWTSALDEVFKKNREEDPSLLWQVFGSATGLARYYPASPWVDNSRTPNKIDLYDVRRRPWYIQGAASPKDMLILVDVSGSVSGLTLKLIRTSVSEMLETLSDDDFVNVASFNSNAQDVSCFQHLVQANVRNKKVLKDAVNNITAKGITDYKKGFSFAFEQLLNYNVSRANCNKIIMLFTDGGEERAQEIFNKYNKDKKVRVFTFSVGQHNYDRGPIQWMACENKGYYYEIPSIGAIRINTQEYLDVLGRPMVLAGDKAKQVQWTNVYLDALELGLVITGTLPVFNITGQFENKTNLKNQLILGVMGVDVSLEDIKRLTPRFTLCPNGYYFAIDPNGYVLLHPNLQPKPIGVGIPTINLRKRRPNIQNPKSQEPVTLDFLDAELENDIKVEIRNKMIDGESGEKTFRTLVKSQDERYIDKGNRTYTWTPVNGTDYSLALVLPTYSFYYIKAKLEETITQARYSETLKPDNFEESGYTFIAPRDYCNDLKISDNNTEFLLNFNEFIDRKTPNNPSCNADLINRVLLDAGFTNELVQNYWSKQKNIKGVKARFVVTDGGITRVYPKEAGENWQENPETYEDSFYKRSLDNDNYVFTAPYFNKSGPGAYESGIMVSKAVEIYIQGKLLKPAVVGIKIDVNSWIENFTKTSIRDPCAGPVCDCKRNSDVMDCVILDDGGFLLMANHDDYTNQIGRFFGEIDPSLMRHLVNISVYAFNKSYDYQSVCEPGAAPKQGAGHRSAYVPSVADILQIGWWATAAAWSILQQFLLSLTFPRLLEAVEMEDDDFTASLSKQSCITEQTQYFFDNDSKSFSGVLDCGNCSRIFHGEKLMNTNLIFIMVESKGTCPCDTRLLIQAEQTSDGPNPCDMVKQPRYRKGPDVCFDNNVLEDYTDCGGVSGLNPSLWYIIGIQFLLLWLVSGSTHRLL
Chain of human norepinephrine transporter (NET) (P23975 whole entry): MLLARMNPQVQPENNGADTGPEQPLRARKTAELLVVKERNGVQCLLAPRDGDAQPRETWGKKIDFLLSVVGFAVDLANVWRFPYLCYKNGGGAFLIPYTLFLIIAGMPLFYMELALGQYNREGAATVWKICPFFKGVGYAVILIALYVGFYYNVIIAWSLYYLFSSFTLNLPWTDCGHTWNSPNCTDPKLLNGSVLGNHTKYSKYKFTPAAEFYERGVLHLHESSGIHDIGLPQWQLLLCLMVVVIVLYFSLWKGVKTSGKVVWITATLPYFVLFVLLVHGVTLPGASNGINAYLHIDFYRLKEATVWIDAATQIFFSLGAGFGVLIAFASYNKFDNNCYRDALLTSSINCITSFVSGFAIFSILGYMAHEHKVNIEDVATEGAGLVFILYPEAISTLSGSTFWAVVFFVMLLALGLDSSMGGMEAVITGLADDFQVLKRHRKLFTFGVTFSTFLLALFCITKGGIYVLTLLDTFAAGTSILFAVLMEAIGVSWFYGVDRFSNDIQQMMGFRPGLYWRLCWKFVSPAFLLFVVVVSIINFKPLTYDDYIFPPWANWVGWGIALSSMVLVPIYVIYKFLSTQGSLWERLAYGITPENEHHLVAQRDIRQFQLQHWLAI

Work on `CNCCC(Oc1cccc2c1CCCN2C)c1cccs1` (stereo not drawn) [Example 1, N-Methyl-3-((1-methyl-1,2,3,4-tetrahydroquinolin-5-yl)oxy)-3-(thiophen-2-yl)propan-1-amine] yielded a Ki ([1]; Table 1, human α2δ-1 enriched membranes) of 100 to 500 nM, a Ki ([1]; Table 2, dual compounds, human α2δ-1 enriched membranes) of 100 to 500 nM and a Ki [2] of 500 to 1000 nM.
